pIC50, pKi: −log10 of the molar value. Where two headings read alike, the source gives them in different places.
Assays:
GCN2 kinase = GCN2 kinase (Homo sapiens, UniProt Q9P2K8); assay: GCN2 enzyme inhibition assay (Transcreener ADP2 fluorescence polarization); format: biochemical; settings: 280 μM ATP
Procedure, shortened: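 Inhibition of 4 nM GCN2 was measured with compound up to 8 μM final, ATP 280 μM and (RS)7 peptide 200 μM over a 1 h, 25 °C reaction. ADP FP readout; IC50 and Ki(app) calculated from percent inhibition.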

[1] = molecular target: intracellular GCN2 (phosphorylation of the GCN2 substrate eIF2α) (Homo sapiens, UniProt Q9P2K8); assay: GCN2 cellular inhibition assay (AlphaScreen SureFire P-eIF2α Ser51, borrelidin-treated U2OS cells); format: cell-based
Sequence of intracellular GCN2 (phosphorylation of the GCN2 substrate eIF2α) (Q9P2K8 whole entry): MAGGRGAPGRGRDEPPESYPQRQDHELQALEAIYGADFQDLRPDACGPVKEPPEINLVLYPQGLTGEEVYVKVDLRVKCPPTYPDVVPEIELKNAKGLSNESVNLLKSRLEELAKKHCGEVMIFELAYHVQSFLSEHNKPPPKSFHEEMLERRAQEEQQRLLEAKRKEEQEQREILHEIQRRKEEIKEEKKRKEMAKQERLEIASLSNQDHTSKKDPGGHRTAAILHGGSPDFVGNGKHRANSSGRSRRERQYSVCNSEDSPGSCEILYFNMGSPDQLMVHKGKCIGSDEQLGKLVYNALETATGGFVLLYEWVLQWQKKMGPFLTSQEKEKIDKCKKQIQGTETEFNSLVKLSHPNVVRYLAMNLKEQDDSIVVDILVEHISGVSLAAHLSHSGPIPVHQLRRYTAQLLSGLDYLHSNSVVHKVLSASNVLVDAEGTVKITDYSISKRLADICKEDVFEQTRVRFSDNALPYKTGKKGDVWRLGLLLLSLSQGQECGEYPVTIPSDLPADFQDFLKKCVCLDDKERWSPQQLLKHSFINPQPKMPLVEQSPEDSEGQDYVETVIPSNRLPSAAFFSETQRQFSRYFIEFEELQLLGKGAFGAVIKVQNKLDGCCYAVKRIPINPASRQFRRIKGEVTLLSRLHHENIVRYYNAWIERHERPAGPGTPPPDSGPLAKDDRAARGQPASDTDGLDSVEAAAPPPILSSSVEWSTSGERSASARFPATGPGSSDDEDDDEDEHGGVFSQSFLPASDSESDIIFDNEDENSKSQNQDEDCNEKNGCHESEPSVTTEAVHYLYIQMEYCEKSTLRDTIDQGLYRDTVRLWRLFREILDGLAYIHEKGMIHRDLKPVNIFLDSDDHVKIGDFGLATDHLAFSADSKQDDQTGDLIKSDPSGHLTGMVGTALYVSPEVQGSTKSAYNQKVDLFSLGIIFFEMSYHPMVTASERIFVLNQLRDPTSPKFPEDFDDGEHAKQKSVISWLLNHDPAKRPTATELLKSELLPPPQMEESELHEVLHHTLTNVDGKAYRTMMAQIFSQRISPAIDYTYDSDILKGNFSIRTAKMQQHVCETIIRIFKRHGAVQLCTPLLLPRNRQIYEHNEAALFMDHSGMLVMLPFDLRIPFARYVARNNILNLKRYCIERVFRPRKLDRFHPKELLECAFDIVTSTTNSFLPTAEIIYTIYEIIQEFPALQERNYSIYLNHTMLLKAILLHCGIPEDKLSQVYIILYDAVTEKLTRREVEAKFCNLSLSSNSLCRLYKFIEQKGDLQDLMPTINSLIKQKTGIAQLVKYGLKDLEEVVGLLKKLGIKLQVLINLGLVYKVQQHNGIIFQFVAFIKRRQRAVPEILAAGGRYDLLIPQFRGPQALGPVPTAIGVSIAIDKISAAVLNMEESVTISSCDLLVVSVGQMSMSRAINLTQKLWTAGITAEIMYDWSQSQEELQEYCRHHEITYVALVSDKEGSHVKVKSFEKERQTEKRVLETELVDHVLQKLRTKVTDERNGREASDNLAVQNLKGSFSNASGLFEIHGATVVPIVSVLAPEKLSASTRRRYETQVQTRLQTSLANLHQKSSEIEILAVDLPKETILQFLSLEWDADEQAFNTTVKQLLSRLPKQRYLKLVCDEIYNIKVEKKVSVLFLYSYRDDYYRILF
Procedure, shortened: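 Read-out: AlphaScreen SureFire phospho-eIF2α (Ser51) signal in U2OS lysates. Cells get 4-fold compound dilutions (top 40 μM final) plus 10 μM borrelidin, 1 h, 37 °C. Percent inhibition is relative to borrelidin-alone controls.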

[2] = compounds of Formula II, 4 nM GCN2 kinase
[3] = compounds of Formula II, biomarker assay, phosphorylated eIF2α Ser51 in borrelidin-treated U2OS cells
[4] = compounds of Formula III, 4 nM GCN2 kinase
[5] = compounds of Formula III, U2OS cells, 10 μM borrelidin, 1 h, read-out: GCN2 Biomarker (IC50)
[6] = Enzyme activity for compounds of Formula IV, Ki(app), 25° C.
[7] = compounds of Formula IV, biomarker assay, phosphorylated eIF2α Ser51 in borrelidin-treated U2OS cells

Sequence of GCN2 kinase (Q9P2K8 whole entry): as above

Row | pIC50 [1, 3] | pIC50 (GCN2 kinase; [2]) | pKi (GCN2 kinase; [4]) | pIC50 [1, 5] | Compound | also measured
1 |  |  | 6.00 to 8.00 | < 5.30 | CC(=O)N1CCN(c2cc(-c3cnn4ccc(C(F)F)nc34)ncn2)CC1 [III-1, 1-[4-[6-[5-(Difluoromethyl)pyrazolo[1,5-a]pyrimidin-3-yl]pyrimidin-4-yl]piperazin-1-yl]ethanone] | 
2 |  |  | > 8.00 | > 6.30 | CS(=O)(=O)NCC1CCCN(c2cc(-c3cnn4ccc(C(F)F)nc34)ncn2)C1 (stereo not shown) [III-2, N-[[1-[6-[5-(Difluoromethyl)pyrazolo[1,5-a]pyrimidin-3-yl]pyrimidin-4-yl]-3-piperidyl]methyl]methanesulfonamide] | 
3 |  |  | 6.00 to 8.00 | < 5.30 | O=C1CCN(c2cc(-c3cnn4ccc(C(F)(F)F)nc34)ncn2)CCN1 [III-3, 1-[6-[5-(Trifluoromethyl)pyrazolo[1,5-a]pyrimidin-3-yl]pyrimidin-4-yl]-1,4-diazepan-5-one] | 
4 |  |  | > 8.00 | > 6.30 | CS(=O)(=O)NC[C@@H]1CN(c2cc(-c3cnn4ccc(C(F)F)nc34)ncn2)CCO1 [III-4, N-[[(2S)-4-[6-[5-(Difluoromethyl)pyrazolo[1,5-a]pyrimidin-3-yl]pyrimidin-4-yl]morpholin-2-yl]methyl]methanesulfonamide] | 
5 |  |  | 6.00 to 8.00 | < 5.30 | CS(=O)(=O)NC[C@H]1CN(c2cc(-c3cnn4cc(F)c(C(F)F)nc34)ncn2)CCO1 [III-5, N-[[(2R)-4-[6-[5-(Difluoromethyl)-6-fluoro-pyrazolo[1,5-a]pyrimidin-3-yl]pyrimidin-4-yl]morpholin-2-yl]methyl]methanesulfonamide] | 
6 |  |  | > 8.00 | 5.30 to 6.30 | CS(=O)(=O)NC[C@@H]1CN(c2cc(-c3cnn4ccc(C(F)F)nc34)ccn2)CCO1 [III-6, N-[[(2S)-4-[4-[5-(Difluoromethyl)pyrazolo[1,5-a]pyrimidin-3-yl]-2-pyridyl]morpholin-2-yl]methyl]methanesulfonamide] | 
7 |  |  | > 8.00 | 5.30 to 6.30 | CC1CN(c2cc(-c3cnn4ccc(C(F)F)nc34)ccn2)CC(CNS(C)(=O)=O)C1(F)F (stereo not shown) [III-7, N-[[1-[4-[5-(Difluoromethyl)pyrazolo[1,5-a]pyrimidin-3-yl]-2-pyridyl]-4,4-difluoro-5-methyl-3-piperidyl]methyl]methanesulfonamide] | 
8 |  |  | > 8.00 | > 6.30 | CS(=O)(=O)NC[C@@H]1CN(c2cc(-c3cnn4cc(F)c(C(F)F)nc34)ncn2)CCO1 [III-10, N-[[(2S)-4-[6-[5-(Difluoromethyl)-6-fluoro-pyrazolo[1,5-a]pyrimidin-3-yl]pyrimidin-4-yl]morpholin-2-yl]methyl]methanesulfonamide] | 
9 |  |  | > 8.00 | > 6.30 | C[C@H]1CN(c2cc(-c3cnn4cc(F)c(C(F)F)nc34)ncn2)C[C@@H](CNS(C)(=O)=O)C1(F)F [III-11, N-[[(3S,5S)-1-[6-[5-(Difluoromethyl)-6-fluoro-pyrazolo[1,5-a]pyrimidin-3-yl]pyrimidin-4-yl]-4,4-difluoro-5-methyl-3-piperidyl]methyl]methanesulfonamide] | 
10 |  |  | > 8.00 | > 6.30 | C[C@H]1CN(c2cc(-c3cnn4ccc(C(F)F)nc34)ncn2)C[C@@H](CNS(C)(=O)=O)C1(F)F [III-12, N-[[(3S,5S)-1-[6-[5-(Difluoromethyl)pyrazolo[1,5-a]pyrimidin-3-yl]pyrimidin-4-yl]-4,4-difluoro-5-methyl-3-piperidyl]methyl]methanesulfonamide] | 
11 |  |  | < 6.00 | < 5.30 | O=C1CCCC2CN(c3cc(-c4cnn5cccnc45)ccn3)CCN12 (stereo not shown) [III-16, 2-(4-(pyrazolo[1,5-a]pyrimidin-3-yl)pyridin-2-yl)octahydro-6H-pyrido[1,2-a]pyrazin-6-one] | 

More lines, now with the values behind:

Row | Compound | pIC50 [1, 3] | pIC50 (GCN2 kinase; [2]) | pKi (GCN2 kinase; [4]) | pIC50 [1, 5] | also measured
12 | Cc1noc([C@@H]2CN(c3cc(-c4cnc5ccc(C(F)(F)F)nn45)ccn3)C[C@H](C)O2)n1 [II-739] | > 6.30 |  |  |  | pKi (GCN2 kinase; [2]): 6.00 to 8.00
13 | FC(F)(F)c1ccc2ncc(-c3ccnc(N4CCCC(c5c[nH]cn5)C4)c3)n2n1 (stereo not shown) [II-740] | > 6.30 |  |  |  | pKi (GCN2 kinase; [2]): > 8.00
14 | FC(F)(F)c1ccc2ncc(-c3ccnc(N4CCCC(c5c[nH]cn5)C4)c3)n2n1 (stereo not shown) [II-741] | > 6.30 |  |  |  | pKi (GCN2 kinase; [2]): > 8.00
15 | C[C@@H]1[C@H](CNS(C)(=O)=O)N(C2CC2)CCN1c1cc(-c2cnc3ccc(C(F)F)nn23)ncn1 [II-753, N-(((2S,3R)-1-cyclopropyl-4-(6-(6-(difluoromethyl)imidazo[1,2-b]pyridazin-3-yl)pyrimidin-4-yl)-3-methylpiperazin-2-yl)methyl)methanesulfonamide] | 5.30 to 6.30 | 6.00 to 8.00 |  |  | 
16 | CC1CC(N=S(C)(C)=O)CN(c2cc(-c3cnc4ccc(C(F)(F)F)nn34)ncn2)C1 (stereo not shown) [II-757, dimethyl((5-methyl-1-(6-(6-(trifluoromethyl)imidazo[1,2-b]pyridazin-3-yl)pyrimidin-4-yl)piperidin-3-yl)imino)-16-sulfanone] | > 6.30 | 6.00 to 8.00 |  |  | 
17 | Cc1nn(C)cc1[C@@H]1CN(c2cc(-c3cnc4ccc(C(F)(F)F)nn34)ncn2)C[C@H](C)O1 [II-759, (2R,6S)-2-(1,3-dimethyl-1H-pyrazol-4-yl)-6-methyl-4-(6-(6-(trifluoromethyl)imidazo[1,2-b]pyridazin-3-yl)pyrimidin-4-yl)morpholine] | < 5.30 | 6.00 to 8.00 |  |  | 
18 | Cc1[nH]ncc1C1CN(c2cc(-c3cnc4ccc(C(F)(F)F)nn34)ncn2)CC(C)O1 (stereo not shown) [II-762, 2-methyl-6-(5-methyl-1H-pyrazol-4-yl)-4-(6-(6-(trifluoromethyl)imidazo[1,2-b]pyridazin-3-yl)pyrimidin-4-yl)morpholine] | 5.30 to 6.30 | 6.00 to 8.00 |  |  | 
19 | Cc1[nH]ncc1[C@H]1CN(c2cc(-c3cnc4ccc(C(F)(F)F)nn34)ncn2)C[C@H](C)O1 [II-765, (2S,6S)-2-methyl-6-(5-methyl-1H-pyrazol-4-yl)-4-(6-(6-(trifluoromethyl)imidazo[1,2-b]pyridazin-3-yl)pyrimidin-4-yl)morpholine] | < 5.30 | 6.00 to 8.00 |  |  | 
20 | Cc1[nH]ncc1[C@@H]1CN(c2cc(-c3cnc4ccc(C(F)(F)F)nn34)ncn2)C[C@@H](C)O1 [II-766, (2R,6R)-2-methyl-6-(5-methyl-1H-pyrazol-4-yl)-4-(6-(6-(trifluoromethyl)imidazo[1,2-b]pyridazin-3-yl)pyrimidin-4-yl)morpholine] | < 5.30 | 6.00 to 8.00 |  |  | 
21 | Cc1[nH]ncc1[C@@H]1CN(c2cc(-c3cnc4ccc(C(F)(F)F)nn34)ncn2)C[C@H](C)O1 [II-767, (2S,6R)-2-methyl-6-(5-methyl-1H-pyrazol-4-yl)-4-(6-(6-(trifluoromethyl)imidazo[1,2-b]pyridazin-3-yl)pyrimidin-4-yl)morpholine] | > 6.30 | 6.00 to 8.00 |  |  | 
22 | C[C@H]1[C@H](CNS(C)(=O)=O)N(C2CC2)CCN1c1cc(-c2cnc3ccc(C(F)F)nn23)ncn1 [II-769, N-(((2S,3S)-1-cyclopropyl-4-(6-(6-(difluoromethyl)imidazo[1,2-b]pyridazin-3-yl)pyrimidin-4-yl)-3-methylpiperazin-2-yl)methyl)methanesulfonamide] | 5.30 to 6.30 | 6.00 to 8.00 |  |  | 
23 | C[C@@H]1[C@@H](CNS(C)(=O)=O)N(C2CC2)CCN1c1cc(-c2cnc3ccc(C(F)F)nn23)ncn1 [II-770, N-(((2R,3R)-1-cyclopropyl-4-(6-(6-(difluoromethyl)imidazo[1,2-b]pyridazin-3-yl)pyrimidin-4-yl)-3-methylpiperazin-2-yl)methyl)methanesulfonamide] | 5.30 to 6.30 | 6.00 to 8.00 |  |  | 
24 | CC(=O)N1CCN(c2cccc(-c3cnc4cnccn34)n2)CC1 [IV-2, 1-(4-(6-(Imidazo[1,2-a]pyrazin-3-yl)pyridin-2-yl)piperazin-1-yl)ethan-1-one] |  |  |  |  | pKi (GCN2 kinase; [6]): 6.00 to 7.00; pIC50 [1, 7]: < 5.30
25 | FC(F)(F)c1cn2c(-c3nccc(N4CCOC(c5cn[nH]c5)C4)n3)cnc2cn1 (stereo not shown) [IV-3, 2-(1H-Pyrazol-4-yl)-4-(2-(6-(trifluoromethyl)imidazo[1,2-a]pyrazin-3-yl)pyrimidin-4-yl)morpholine] |  |  |  |  | pKi (GCN2 kinase; [6]): > 8.00; pIC50 [1, 7]: > 6.30
26 | c1cc(N2CCOC(c3cn[nH]c3)C2)nc(-c2cnc3cnc(C4CC4)cn23)n1 (stereo not shown) [IV-4, 4-(2-(6-Cyclopropylimidazo[1,2-a]pyrazin-3-yl)pyrimidin-4-yl)-2-(1H-pyrazol-4-yl)morpholine] |  |  |  |  | pKi (GCN2 kinase; [6]): > 8.00; pIC50 [1, 7]: 5.30 to 6.30
27 | CC1CN(c2ccnc(-c3cnc4cnc(Cl)cn34)n2)CC(CNS(C)(=O)=O)C1(F)F (stereo not shown) [IV-5, N-((1-(2-(6-Chloroimidazo[1,2-a]pyrazin-3-yl)pyrimidin-4-yl)-4,4-difluoro-5-methylpiperidin-3-yl)methyl)methanesulfonamide] |  |  |  |  | pKi (GCN2 kinase; [6]): 7.00 to 8.00; pIC50 [1, 7]: 5.30 to 6.30
28 | Clc1cn2c(-c3nccc(N4CCOC(c5cn[nH]c5)C4)n3)cnc2cn1 (stereo not shown) [IV-6, 4-(2-(6-Chloroimidazo[1,2-a]pyrazin-3-yl)pyrimidin-4-yl)-2-(1H-pyrazol-4-yl)morpholine] |  |  |  |  | pKi (GCN2 kinase; [6]): > 8.00; pIC50 [1, 7]: > 6.30
29 | CC1CN(c2ccnc(-c3cnc4cnc(C(F)(F)F)cn34)n2)CC(c2cn[nH]c2)O1 (stereo not shown) [IV-10, 2-Methyl-6-(1H-pyrazol-4-yl)-4-(2-(6-(trifluoromethyl)imidazo[1,2-a]pyrazin-3-yl)pyrimidin-4-yl)morpholine] |  |  |  |  | pKi (GCN2 kinase; [6]): > 8.00; pIC50 [1, 7]: > 6.30

Reference: patent publication US10988477B2 (Merck Patent GmbH, priority 2018, dated 2021)
